IC50 data for 33 compounds are collected here from patent publication US12084437B2, “Halo-substituted piperidines as orexin receptor modulators” (AstraZeneca AB, priority 2016, dated 2024).

Structures are written as SMILES. “And” between values parts separate entries of the source, which are not always exact repeats. Equal entries are not always repeated. Bounds are passed on as bounds.

One assay addresses T1, OX1 (Homo sapiens, UniProt O43613).
T1 construct: expressed in transfected cells; host or cells: CHO (CHO-OX1)
T1 sequence (O43613 1-425): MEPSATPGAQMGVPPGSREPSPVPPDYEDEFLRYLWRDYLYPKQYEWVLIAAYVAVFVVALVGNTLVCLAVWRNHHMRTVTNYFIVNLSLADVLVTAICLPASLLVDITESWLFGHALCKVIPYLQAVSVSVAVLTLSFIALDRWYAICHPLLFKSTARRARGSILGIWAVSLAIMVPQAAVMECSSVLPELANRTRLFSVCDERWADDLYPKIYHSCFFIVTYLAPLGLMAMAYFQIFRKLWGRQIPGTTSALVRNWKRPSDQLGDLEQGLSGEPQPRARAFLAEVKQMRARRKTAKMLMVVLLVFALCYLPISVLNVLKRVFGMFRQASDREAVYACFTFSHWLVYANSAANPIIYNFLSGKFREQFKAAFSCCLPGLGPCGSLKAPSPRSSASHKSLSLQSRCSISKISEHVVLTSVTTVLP
Description: Orexin receptor cell-based functional assay, [Ca2+]i by FLIPR, CHO-OX1 cells. Conditions: FLIPR calcium, antagonism of EC90 of [OX], read-out: OXI, IC50. The method, then:
(§1) Measurement of [Ca^2+]i using a FLIPR: CHO-OX1 or CHO-OX2 cells were seeded into black-walled clear-base 384-well plates (Corning, catalog #3712) at a density of 20,000 cells per well in F12-K medium supplemented with 10% FBS and then incubated in a 5% CO2, 37° C. incubator overnight to reach 90% confluency. The cells were incubated with equal volume of calcium6 loading buffer (Molecular Devices, Inc.) containing 2.5 mM probenecid at 37° C. for 2 h, followed by test compounds (dose-range 0.1 nM-10 μM) for another 30 min. The plates were then placed into a FLIPR (Molecular Devices, Inc.) to monitor fluorescence (λ excitation 488 nm, λ emission 540 nm) before and after the addition of EC90 of [OX].

The next assay concerns the target T2, OX2 (Homo sapiens, UniProt O43614).
T2 construct: expressed in transfected cells; host or cells: CHO (CHO-OX2)
T2 sequence (O43614 1-444): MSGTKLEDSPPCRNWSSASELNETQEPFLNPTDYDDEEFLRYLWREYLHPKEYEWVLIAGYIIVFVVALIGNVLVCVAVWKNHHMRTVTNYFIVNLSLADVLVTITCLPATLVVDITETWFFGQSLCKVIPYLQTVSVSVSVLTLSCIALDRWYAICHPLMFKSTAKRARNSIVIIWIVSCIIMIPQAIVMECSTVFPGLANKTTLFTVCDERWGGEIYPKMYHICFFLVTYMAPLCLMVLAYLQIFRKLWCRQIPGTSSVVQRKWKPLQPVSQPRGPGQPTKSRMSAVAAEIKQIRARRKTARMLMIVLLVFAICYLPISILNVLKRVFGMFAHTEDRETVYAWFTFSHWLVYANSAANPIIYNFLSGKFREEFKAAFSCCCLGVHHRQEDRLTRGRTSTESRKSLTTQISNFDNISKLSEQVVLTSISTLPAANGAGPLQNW
Nature of the assay: Orexin receptor cell-based functional assay, [Ca2+]i by FLIPR, CHO-OX2 cells. Conditions: FLIPR calcium, antagonism of EC90 of [OX]. Here is the method: as §1, with “[OX]. Results for exemplary compounds of Formulae (I), (Ia), (Ib), (II), (IIa), (III), (IIIa), (IV), (IVa), (V), or (Va) are shown in Table 3.” for “[OX].”

The term IC50 denotes the concentration needed to halve the response being measured. Regarding `Cc1nc(C(=O)N2CC(F)(F)C[C@@H](C)[C@H]2CNc2ncc(C(F)(F)F)cn2)c(-c2ncccc2C)s1` [Compound 75], the IC50 at OX1 is 12 nM; on OX2 it was greater than 5 µM.
As to `Cc1ccc(-c2sc(C)nc2C(=O)N2CC(F)(F)C[C@@H](C)[C@H]2CNc2ncc(C(F)(F)F)cn2)nc1` [Compound 76], the IC50 was 10 nM at OX1 and greater than 5 µM on OX2.
The corresponding values for `Cc1cccc(-c2sc(C)nc2C(=O)N2CC(F)(F)C[C@@H](C)[C@H]2CNc2ncc(C(F)(F)F)cn2)n1` [Compound 77] are 4 nM and greater than 5 µM.
On to `COc1ccc(-c2sc(C)nc2C(=O)N2CC(F)(F)C[C@@H](C)[C@H]2CNc2ncc(C(F)(F)F)cn2)nc1` [Compound 78], for which the IC50 at OX1 is 2 nM; on OX2, greater than 5 µM.
The corresponding values for `C[C@@H]1CC(F)(F)CN(C(=O)c2nn(C)nc2-c2ccc(F)cc2)[C@@H]1CNc1ncc(C(F)(F)F)cn1` [Compound 81] are 102 nM and greater than 5 µM.
The corresponding values for `C[C@@H]1CC(F)(F)CN(C(=O)c2nn(C)nc2-c2ccccc2)[C@@H]1CNc1ncc(C(F)(F)F)cn1` [Compound 82] are 45 nM and greater than 5 µM.
The matching figures for `C[C@@H]1CC(F)(F)CN(C(=O)c2nn(C)nc2-c2ccccn2)[C@@H]1CNc1ncc(C(F)(F)F)cn1` [Compound 83]: 56 nM and greater than 5 µM.
Regarding `Cc1nc(C(=O)N2CC(F)(F)C[C@@H](C)[C@H]2CNc2ncc(C(F)(F)F)cn2)c(-c2ccc(F)cc2)o1` [Compound 84], the results for the IC50 on OX1 and at OX2 were 130 nM and greater than 5 µM, respectively.
`Cc1nc(C(=O)N2CC(F)(F)C[C@@H](C)[C@H]2CNc2ncc(C(F)(F)F)cn2)c(-c2ccccc2)o1` [Compound 85]: the IC50 at OX1 was 12 nM and 30 nM; on OX2, greater than 5 µM.
Turning to `Cc1nc(C(=O)N2CC(F)(F)C[C@@H](C)[C@H]2CNc2ncc(C(F)(F)F)cn2)c(-c2ccccn2)o1` [Compound 87], the IC50 was greater than 1000 nM at OX1 and greater than 5 µM at OX2.
Turning to `Cc1ccc(-c2cn(C)nc2C(=O)N2CC(F)(F)C[C@@H](C)[C@H]2CNc2ncc(C(F)(F)F)cn2)cn1` [Compound 89], the IC50 is 23 nM on OX1 and greater than 5 µM on OX2.
The corresponding values for `C[C@@H]1CC(F)(F)CN(C(=O)c2nn(C)cc2-c2cccnc2)[C@@H]1CNc1ncc(C(F)(F)F)cn1` [Compound 90] are 206 nM and greater than 5 µM.
In the case of `Cc1cc(C(=O)N2CC(F)(F)C[C@@H](C)[C@H]2CNc2ncc(C(F)(F)F)cn2)c(-c2ccccn2)s1` [Compound 91], the IC50 was 7 nM on OX1 and greater than 5 µM at OX2.
The corresponding values for `Cc1cc(C(=O)N2CC(F)(F)C[C@@H](C)[C@H]2CNc2ncc(Cl)cn2)c(-c2ccccn2)s1` [Compound 92] are 24 nM and greater than 5 µM.
For `C[C@@H]1CC(F)(F)CN(C(=O)c2cn(C)nc2-c2ccccn2)[C@@H]1CNc1ncc(C(F)(F)F)cn1` [Compound 93], the IC50 at OX1 was 156 nM; at OX2, greater than 5 µM.
The corresponding values for `C[C@@H]1CC(F)(F)CN(C(=O)c2cnn(C)c2-c2ccccn2)[C@@H]1CNc1ncc(C(F)(F)F)cn1` [Compound 95] are greater than 1000 nM and greater than 5 µM.
The corresponding values for `C[C@@H]1CC(F)(F)CN(C(=O)c2cnn(C)c2-c2ccccn2)[C@@H]1CNc1ncc(Cl)cn1` [Compound 96] are greater than 1000 nM and greater than 5 µM.
The corresponding values for `C[C@@H]1CC(F)(F)CN(C(=O)c2nn(C)cc2-c2ncccn2)[C@@H]1CNc1ncc(C(F)(F)F)cn1` [Compound 97, ((2S,3R)-5,5-difluoro-3-methyl-2-(((5-(trifluoromethyl)pyrimidin-2-yl)amino)methyl)piperidin-1-yl)(1-methyl-4-(pyrimidin-2-yl)-1H-pyrazol-3-yl)methanone] are 12 nM and greater than 5 µM.
On to `C[C@@H]1CC(F)(F)CN(C(=O)c2nn(C)cc2-c2ccccc2)[C@@H]1CNc1cnc(C(F)(F)F)cn1` [Compound 120, ((2S,3R)-5,5-difluoro-3-methyl-2-(((5-(trifluoromethyl)pyrazin-2-yl)amino)methyl)piperidin-1-yl)(1-methyl-4-phenyl-1H-pyrazol-3-yl)methanone], for which the IC50 is 2 nM at OX1 and greater than 5 µM at OX2.
As to `C[C@@H]1CC(F)(F)CN(C(=O)c2nn(C)cc2-c2ccc(F)cc2)[C@@H]1CNc1cnc(C(F)(F)F)cn1` [Compound 121], the IC50 at OX1 is 5 nM; on OX2, greater than 5 µM.
For the compound `Cc1ccc(-c2cn(C)nc2C(=O)N2CC(F)(F)C[C@@H](C)[C@H]2CNc2cnc(C(F)(F)F)cn2)cc1` [Compound 122], the IC50 is 5 nM on OX1 and greater than 5 µM at OX2.
As to `Cc1cccc(-c2cn(C)nc2C(=O)N2CC(F)(F)C[C@@H](C)[C@H]2CNc2cnc(C(F)(F)F)cn2)c1` [Compound 123], the IC50 was 2 nM at OX1 and greater than 5 µM on OX2.
The matching figures for `COc1cccc(-c2cn(C)nc2C(=O)N2CC(F)(F)C[C@@H](C)[C@H]2CNc2cnc(C(F)(F)F)cn2)c1` [Compound 124]: 4 nM and 1 µM.
For the compound `COc1ccc(-c2cn(C)nc2C(=O)N2CC(F)(F)C[C@@H](C)[C@H]2CNc2cnc(C(F)(F)F)cn2)cc1` [Compound 125], the IC50 is 4 nM and 2 nM at OX1; greater than 5 µM on OX2.
Turning to `C[C@@H]1CC(F)(F)CN(C(=O)c2nn(C)cc2-c2ccccn2)[C@@H]1CNc1cnc(C(F)(F)F)cn1` [Compound 130], the IC50 at OX1 is 6 nM; on OX2, greater than 5 µM.
The corresponding values for `Cc1cccc(-c2cn(C)nc2C(=O)N2CC(F)(F)C[C@@H](C)[C@H]2CNc2cnc(C(F)(F)F)cn2)n1` [Compound 132] are 7 nM and greater than 5 µM.
The corresponding values for `Cc1ccc(-c2cn(C)nc2C(=O)N2CC(F)(F)C[C@@H](C)[C@H]2CNc2cnc(C(F)(F)F)cn2)nc1` [Compound 133] are 11 nM and greater than 5 µM.
As for `Cc1ccnc(-c2cn(C)nc2C(=O)N2CC(F)(F)C[C@@H](C)[C@H]2CNc2cnc(C(F)(F)F)cn2)c1` [Compound 134], the IC50 was 4 nM at OX1 and greater than 5 µM at OX2.
The matching figures for `COc1ccc(-c2cn(C)nc2C(=O)N2CC(F)(F)C[C@@H](C)[C@H]2CNc2cnc(C(F)(F)F)cn2)nc1` [Compound 135]: 19 nM and greater than 5 µM.
The corresponding values for `COc1cccc(-c2cn(C)nc2C(=O)N2CC(F)(F)C[C@@H](C)[C@H]2CNc2cnc(C(F)(F)F)cn2)n1` [Compound 136] are 40 nM and greater than 5 µM.
The corresponding values for `Cc1ccc(-c2sc(C)nc2C(=O)N2CC(F)(F)C[C@@H](C)[C@H]2CNc2cnc(C(F)(F)F)cn2)cc1` [Compound 138] are 6 nM and greater than 5 µM.
As to `Cc1cccc(-c2sc(C)nc2C(=O)N2CC(F)(F)C[C@@H](C)[C@H]2CNc2cnc(C(F)(F)F)cn2)c1` [Compound 139], the half-inhibitory concentration (IC50) is 10 nM at OX1 and greater than 5 µM at OX2.
The matching figures for `COc1cccc(-c2sc(C)nc2C(=O)N2CC(F)(F)C[C@@H](C)[C@H]2CNc2cnc(C(F)(F)F)cn2)c1` [Compound 142]: 4 nM and greater than 5 µM.
